pIC50: −log10 of the molar value.
target: T1, TLR9 (Homo sapiens, UniProt Q9NR96); test: huPBMC TLR9 Antagonist IFNα Assay; assay type: cell-based; details: human PBMCs stimulated with ODN2216 0.3 μM, 14-16 hrs; IFNα2b AlphaLISA read-out
T1 construct: Fresh blood was collected from normal human donors; endogenous in cells; host or cells: human PBMCs from fresh donor blood
T1 sequence (Q9NR96 26-1032): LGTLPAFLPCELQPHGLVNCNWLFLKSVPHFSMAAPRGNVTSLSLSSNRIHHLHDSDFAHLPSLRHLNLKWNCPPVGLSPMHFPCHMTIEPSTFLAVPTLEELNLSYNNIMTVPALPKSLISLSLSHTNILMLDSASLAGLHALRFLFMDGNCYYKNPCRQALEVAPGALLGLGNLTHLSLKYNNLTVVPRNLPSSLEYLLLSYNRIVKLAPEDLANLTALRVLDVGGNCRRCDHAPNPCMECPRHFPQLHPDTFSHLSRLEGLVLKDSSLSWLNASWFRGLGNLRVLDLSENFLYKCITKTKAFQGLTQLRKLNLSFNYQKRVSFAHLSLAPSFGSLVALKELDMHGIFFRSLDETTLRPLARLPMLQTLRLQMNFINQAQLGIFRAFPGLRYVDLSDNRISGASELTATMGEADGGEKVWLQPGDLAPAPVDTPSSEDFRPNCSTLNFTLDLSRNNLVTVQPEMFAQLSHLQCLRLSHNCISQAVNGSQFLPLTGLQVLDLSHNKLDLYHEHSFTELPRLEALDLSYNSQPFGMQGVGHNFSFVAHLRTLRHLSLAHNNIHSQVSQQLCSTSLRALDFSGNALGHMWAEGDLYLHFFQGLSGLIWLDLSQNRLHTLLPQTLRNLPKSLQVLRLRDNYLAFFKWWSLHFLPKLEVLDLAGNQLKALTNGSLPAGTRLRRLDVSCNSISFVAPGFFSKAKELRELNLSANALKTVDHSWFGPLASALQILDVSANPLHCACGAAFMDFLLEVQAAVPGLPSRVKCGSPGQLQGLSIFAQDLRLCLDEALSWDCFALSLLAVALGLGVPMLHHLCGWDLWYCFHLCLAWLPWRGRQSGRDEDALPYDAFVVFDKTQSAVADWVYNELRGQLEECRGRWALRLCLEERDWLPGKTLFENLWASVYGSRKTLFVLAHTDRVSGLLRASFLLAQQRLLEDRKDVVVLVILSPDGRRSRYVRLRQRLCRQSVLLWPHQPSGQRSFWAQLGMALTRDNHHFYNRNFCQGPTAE
Summary of the method: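 Human PBMCs from fresh donor blood (150,000 cells/well) stimulated 14–16 h at 37 °C with DOTAP-complexed ssRNA40 (final 1 μg/ml for TLR8, 10 μg/mL for TLR7) or ODN2216 (final 0.3 μM, TLR9), 0.25% DMSO, ten-point 1/3 compound dilutions. Supernatant IL-6 read by HTRF (TLR8); IFNα by IFNα2b AlphaLISA (TLR7/TLR9).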

Point of comparison: `COCCNC12CCC(Cn3nc(C)c4c3CCN(c3ccnc(-c5ccccc5)c3)C4)(CC1)CC2` [compound 130, N-(2-methoxyethyl)-4-((3-methyl-5-(2-phenylpyridin-4-yl)-4,5,6,7-tetrahydro-1H-pyrazolo[4,3-c]pyridin-1-yl)methyl)bicyclo[2.2.2]octan-1-amine], pIC50 6.17. Against it:
- Cc1cc(N2CCc3c(c(C)nn3CC34CCC(N5C[C@@H](C)O[C@H](C)C5)(CC3)CC4)C2)c2cnn(C)c2n1 [compound 113, (2R,6R)-4-(4-((5-(1,6-dimethyl-1H-pyrazolo[3,4-b]pyridin-4-yl)-3-methyl-4,5,6,7-tetrahydro-1H-pyrazolo[4,3-c]pyridin-1-yl)methyl)bicyclo[2.2.2]octan-1-yl)-2,6-dimethylmorpholine] — 0.32 log units lower, 5.85
- Cc1cc(N2CCc3c(c(C)nn3CC34CCC(N5CCN(C)CC5=O)(CC3)CC4)C2)c2cnn(C)c2n1 [Compound No. 108, 1-(4-((5-(1,6-dimethyl-1H-pyrazolo[3,4-b]pyridin-4-yl)-3-methyl-4,5,6,7-tetrahydro-1H-pyrazolo[4,3-c]pyridin-1-yl)methyl)bicyclo[2.2.2]octan-1-yl)-4-methylpiperazin-2-one] — 1.11 log units lower, 5.06
- Cc1nc(N2CCc3c(c(C)nn3CC34CCC(N5CCCC5)(CC3)CC4)C2)c2cn[nH]c2n1 [compound 30, 6-methyl-4-(3-methyl-1-((4-(pyrrolidin-1-yl)bicyclo[2.2.2]octan-1-yl)methyl)-6,7-dihydro-1H-pyrazolo[4,3-c]pyridin-5(4H)-yl)-1H-pyrazolo[3,4-d]pyrimidine] — lower, < 5.00
- CCNCC(=O)NC12CCC(Cn3nc(C)c4c3CCN(c3nc(C)nc5[nH]ncc35)C4)(CC1)CC2 [compound 20, 2-(ethylamino)-N-(4-((3-methyl-5-(6-methyl-1H-pyrazolo[3,4-d]pyrimidin-4-yl)-4,5,6,7-tetrahydro-1H-pyrazolo[4,3-c]pyridin-1-yl)methyl)bicyclo[2.2.2]octan-1-yl)acetamide] — lower, < 5.03
- Cc1cc(N2CCc3c(c(C)nn3CC34CCC(NCC(=O)N5CCCCC5)(CC3)CC4)C2)c2cnn(C)c2n1 [compound 99, 2-((4-((5-(1,6-dimethyl-1H-pyrazolo[3,4-b]pyridin-4-yl)-3-methyl-4,5,6,7-tetrahydro-1H-pyrazolo[4,3-c]pyridin-1-yl)methyl)bicyclo[2.2.2]octan-1-yl)amino)-1-(piperidin-1-yl)ethanone] — 0.62 log units lower, 5.55
- Cc1cc(N2CCc3c(c(C)nn3CC34CCC(n5ccnc5)(CC3)CC4)C2)c2cnn(C)c2n1 [Compound No. 119, 1-((4-(1H-imidazol-1-yl)bicyclo[2.2.2]octan-1-yl)methyl)-5-(1,6-dimethyl-1H-pyrazolo[3,4-b]pyridin-4-yl)-3-methyl-4,5,6,7-tetrahydro-1H-pyrazolo[4,3-c]pyridine] — within 0.2 log units, 6.22
- Cc1cc(N2CCc3c(c(C)nn3CC34CCC(NC(=O)[C@@H]5COCCN5)(CC3)CC4)C2)c2cnn(C)c2n1 [Compound No. 8, (S)—N-(4-((5-(1,6-dimethyl-1H-pyrazolo[3,4-b]pyridin-4-yl)-3-methyl-4,5,6,7-tetrahydro-1H-pyrazolo[4,3-c]pyridin-1-yl)methyl)bicyclo[2.2.2]octan-1-yl)morpholine-3-carboxamide] — 0.80 log units lower, 5.37
- CCNCC(=O)NC12CCC(Cn3nc(C)c4c3CCN(c3nc(C)nc5c(C)nn(C)c35)C4)(CC1)CC2 [compound 22, 2-(ethylamino)-N-(4-((3-methyl-5-(1,3,5-trimethyl-1H-pyrazolo[4,3-c]pyrimidin-7-yl)-4,5,6,7-tetrahydro-1H-pyrazolo[4,3-c]pyridin-1-yl)methyl)bicyclo[2.2.2]octan-1-yl)acetamide] — lower, < 5.00
- Cc1cc(N2CCc3c(c(C)nn3CC34CCC(NCC5(CO)COC5)(CC3)CC4)C2)c2cnn(C)c2n1 [compound 137, (3-(((4-((5-(1,6-dimethyl-1H-pyrazolo[3,4-b]pyridin-4-yl)-3-methyl-4,5,6,7-tetrahydro-1H-pyrazolo[4,3-c]pyridin-1-yl)methyl)bicyclo[2.2.2]octan-1-yl)amino)methyl)oxetan-3-yl)methanol] — 0.28 log units lower, 5.89
- Cc1cc(N2CCc3c(c(C)nn3CC34CCC(NC(=O)OC(C)(C)C)(CC3)C4)C2)c2cnn(C)c2n1 [compound 148, tert-butyl (4-((5-(1,6-dimethyl-1H-pyrazolo[3,4-b]pyridin-4-yl)-3-methyl-4,5,6,7-tetrahydro-1H-pyrazolo[4,3-c]pyridin-1-yl)methyl)bicyclo[2.2.1]heptan-1-yl)carbamate] — lower, < 5.00
- Cc1cc(N2CCc3c(c(C)nn3CC34CCC(NC5CCC5)(CC3)CO4)C2)c2cnn(C)c2n1 [compound 143, N-cyclobutyl-1-((5-(1,6-dimethyl-1H-pyrazolo[3,4-b]pyridin-4-yl)-3-methyl-4,5,6,7-tetrahydro-1H-pyrazolo[4,3-c]pyridin-1-yl)methyl)-2-oxabicyclo[2.2.2]octan-4-amine] — within 0.2 log units, 6.08
- Cc1nc(N2CCc3c(c(C)nn3CC34CCC(N5CCCC5)(CC3)CC4)C2)c2c(n1)c(C)nn2C [compound 17, 1,3,5-trimethyl-7-(3-methyl-1-((4-(pyrrolidin-1-yl)bicyclo[2.2.2]octan-1-yl)methyl)-6,7-dihydro-1H-pyrazolo[4,3-c]pyridin-5(4H)-yl)-1H-pyrazolo[4,3-d]pyrimidine] — lower, < 5.00
- Cc1cc(N2CCc3c(c(C)nn3CC34CCC(N(C)C)(CC3)CC4)C2)c2cnn(C)c2n1 [Compound No. 43, 4-((5-(1,6-dimethyl-1H-pyrazolo[3,4-b]pyridin-4-yl)-3-methyl-4,5,6,7-tetrahydro-1H-pyrazolo[4,3-c]pyridin-1-yl)methyl)-N,N-dimethylbicyclo[2.2.2]octan-1-amine] — within 0.2 log units, 6.29
- Cc1nc(N2CCc3c(c(C)nn3CC34CCC(N5CCCCC5)(CC3)CC4)C2)c2c(n1)c(C)nn2C [compound 38, 1,3,5-trimethyl-7-(3-methyl-1-((4-(piperidin-1-yl)bicyclo[2.2.2]octan-1-yl)methyl)-6,7-dihydro-1H-pyrazolo[4,3-c]pyridin-5(4H)-yl)-1H-pyrazolo[4,3-d]pyrimidine] — lower, < 5.00
- Cc1cc(N2CCc3c(c(C)nn3CC34CCC(NC5COC5)(CC3)CC4)C2)c2cnn(C)c2n1 [Compound No. 6, N-(4-((5-(1,6-dimethyl-1H-pyrazolo[3,4-b]pyridin-4-yl)-3-methyl-4,5,6,7-tetrahydro-1H-pyrazolo[4,3-c]pyridin-1-yl)methyl)bicyclo[2.2.2]octan-1-yl)oxetan-3-amine] — 0.31 log units lower, 5.86
- Cc1cc(N2CCc3c(c(C)nn3CC34CCC(NCC(C)(C)O)(CC3)CC4)C2)c2cnn(C)c2n1 [compound 123, 1-((4-((5-(1,6-dimethyl-1H-pyrazolo[3,4-b]pyridin-4-yl)-3-methyl-4,5,6,7-tetrahydro-1H-pyrazolo[4,3-c]pyridin-1-yl)methyl)bicyclo[2.2.2]octan-1-yl)amino)-2-methylpropan-2-ol] — 0.52 log units lower, 5.65
- Cc1cc(N2CCc3c(c(C)nn3CC34CCC(N5CCO[C@H](C)C5)(CC3)CC4)C2)c2cnn(C)c2n1 [compound 107, (R)-4-(4-((5-(1,6-dimethyl-1H-pyrazolo[3,4-b]pyridin-4-yl)-3-methyl-4,5,6,7-tetrahydro-1H-pyrazolo[4,3-c]pyridin-1-yl)methyl)bicyclo[2.2.2]octan-1-yl)-2-methylmorpholine] — 0.40 log units lower, 5.77
- Cc1nc(N2CCc3c(c(C)nn3CC34CCC(N5CC6(COC6)C5)(CC3)CC4)C2)c2c(n1)c(C)nn2C [Compound No. 10, 6-(4-((3-methyl-5-(1,3,5-trimethyl-1H-pyrazolo[4,3-d]pyrimidin-7-yl)-4,5,6,7-tetrahydro-1H-pyrazolo[4,3-c]pyridin-1-yl)methyl)bicyclo[2.2.2]octan-1-yl)-2-oxa-6-azaspiro[3.3]heptane] — lower, < 5.00
- CCNCC(=O)NC12CCC(Cn3nc(C)c4c3CCN(c3cc(C)nc5c3cnn5C)C4)(CC1)CC2 [compound 114, N-(4-((5-(1,6-dimethyl-1H-pyrazolo[3,4-b]pyridin-4-yl)-3-methyl-4,5,6,7-tetrahydro-1H-pyrazolo[4,3-c]pyridin-1-yl)methyl)bicyclo[2.2.2]octan-1-yl)-2-(ethylamino)acetamide] — 0.36 log units lower, 5.81
